The text below walks through data of patent US20170119726A1, “Stabilized Cabazitaxel Formulations” (Cipla (UK) Limited, priority 2015, published 2017).

For series [1] the following is noted: mouse, in vivo, iv, 12 mg/kg.
Procedure: (§1) DU145 cells (5×106) at their exponential growth phase were inoculated subcutaneously on the dorsal right flank in athymic female mice. […] Animals in the vehicle control group received 5 w/v % dextrose solution. Growth of prostate xenografts (tumor volume) and whole body weights were recorded twice weekly (on days 1, 3, 5, 8, 10, 15, 17, 19) during treatment period. Animals were also monitored for clinical signs and mortality everyday throughout the study. On the day of sacrifice (day 19), blood and tumors were collected from set of animals (4 animals in each time point) at stipulated time points (1, 2, 3, and 4 h post-dose). At the end of blood collection, animals were humanely euthanized by cervical dislocation and tumor in toto was harvested from all the animals, transferred to pre-labeled microcentrifuge tubes before flash freezing in liquid nitrogen.
Series [2] is described as follows: Study 4: in-life observations (mortality, clinical signs, body weight). The following applies: both treatment groups, 12 mg/kg IV on days 1, 7, 13, 19, nude mice.
Procedure: as §1

`CO[C@H]1C(=O)[C@]2(C)[C@@H](OC)C[C@H]3OC[C@@]3(OC(C)=O)[C@H]2[C@H](OC(=O)c2ccccc2)[C@]2(O)C[C@H](OC(=O)[C@H](O)[C@@H](NC(=O)OC(C)(C)C)c3ccccc3)C(C)=C1C2(C)C` [Cabazitaxel, (2α,5β,7β,10β, 13α)-4-acetoxy-13-({(2R,3S)-3[(tertbutoxycarbonyl)amino]-2-hydroxy-3-phenylpropanoyl}-oxy)-1-hydroxy-7,10-dimethoxy-9-oxo-5,20-epoxytax-11-en-2-yl benzoate]: the tolerability entry in series [1] was “well tolerated”. Further, the mortality result in series [2] was “no mortality was observed”.
